In patent publication US20140288074A1, “FUNGICIDAL PYRAZOLES” (E I DU PONT DE NEMOURS AND COMPANY, priority 2013, published 2014):
Marks after values point to notes of the source that are not given here.

Experiments:
Septoria tritici = test: Test D: preventive spray on wheat seedlings, wheat leaf blotch, visual disease rating; format: in vivo; conditions: for pest or weed control at 200 ppm / Test D rating (disease control): 200 ppm test suspension, Septoria tritici inoculated the day after spraying
How it was run: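 Wheat seedlings sprayed to run-off with 200 ppm suspension (≈800 g/ha; asterisked ratings 40 ppm), then inoculated with S. tritici spores next day. Held 48 h saturated at 24 °C, then 19 days at 20 °C. Visual rating 0–100% disease control versus controls, triplicate mean.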

[1] = test system: Puccinia recondita f. sp. tritici; test: Test E: spray after inoculation of wheat seedlings, wheat leaf rust, visual disease rating; format: in vivo; conditions: sprayed after inoculation with Puccinia recondita f. sp. tritici
Method: General protocol for preparing test suspensions for Tests A-G: the test compounds were first dissolved in acetone in an amount equal to 3% of the final volume and then suspended at the desired concentration (in ppm) in acetone and purified water (50/50 mix by volume) containing 250 ppm of the surfactant Trem® 014 (polyhydric alcohol esters). The resulting test suspensions were then used in Tests A-G. Each test was conducted in triplicate, and the results were averaged. Spraying a 200 ppm test suspension to the point of run-off on the test plants was the equivalent of a rate of 800 g/ha. Unless otherwise indicated, the rating values indicate a 200 ppm test suspension was used. (An asterisk “*” next to the rating value indicates a 40 ppm test suspension was used.) Wheat seedlings were inoculated with a spore suspension of Puccinia recondita f. sp. tritici (the causal agent of wheat leaf rust) and incubated in a saturated atmosphere at 20° C. for 24 h, and then moved to a growth chamber at 20° C. for 2 days. At the end of this time the, the test suspension was sprayed to the point of run-off on the wheat seedlings, and then the seedlings were moved back to the growth chamber at 20° C. for 4 days. Upon removal, visual disease ratings were made. Results for Tests A-G are given in Table A. In the Table, a rating of 100 indicates 100% disease control and a rating of 0 indicates no disease control (relative to the controls). A hyphen (-) indicates no test results.

Row | Compound | pest or weed control at 200 ppm (Septoria tritici; Zymoseptoria tritici, 504 h) [%] | Test E rating (disease control) ([1]; 200 ppm test suspension) [%] | Test D rating (disease control) (Septoria tritici) [%] | pest or weed control at 40 ppm (Septoria tritici; Zymoseptoria tritici, 504 h, 40 ppm test suspension (asterisk), Septoria tritici) [%] | Test E rating (disease control) ([1]; 40 ppm test suspension (asterisk))
1 | Cc1nn(C)c(C(O)C(C)C)c1-c1ccc(F)cc1Cl (stereo not drawn) [Compound 2, 4-(2-chloro-4-fluorophenyl)-1,3-dimethyl-α-(1-methylethyl)-1H-pyrazole-5-methanol] | 100 | 26 |  |  | 
2 | CCCNc1c(-c2ccc(Cl)cc2Cl)c(C)nn1C [Compound 3] |  | 0 | 92 |  | 
3 | Cc1nn(C)c(NCC(C)C)c1-c1ccc(Cl)cc1Cl [Compound 4, 4-(2,4-dichlorophenyl)-1,3-dimethyl-N-(2-methylpropyl)-1H-pyrazol-5-amine] | 99 | 26 |  |  | 
4 | CCCCNc1c(-c2ccc(Cl)cc2Cl)c(C)nn1C [Compound 5, N-butyl-4-(2,4-dichlorophenyl)-1,3-dimethyl-1H-pyrazol-5-amine] | 88 | 79 |  |  | 
5 | Cc1nn(C)c(NC2CCCCC2)c1-c1ccc(F)cc1F [Compound 6, N-cyclohexyl-4-(2,4-difluorophenyl)-1,3-dimethyl-1H-pyrazol-5-amine] | 100 | 68 |  |  | 
6 | CCC(C)C(O)c1c(-c2ccc(F)cc2Cl)c(C)nn1C (stereo not drawn) [Compound 8, 4-(2-chloro-4-fluorophenyl)-1,3-dimethyl-α-(1-methylpropyl)-1H-pyrazole-5-methanol] | 100 | 0 |  |  | 
7 | Cc1nn(C)c(C(O)C(C)(C)CCC#N)c1-c1c(F)cccc1F (centres unmarked) [Compound 9] |  | 0 | 98 |  | 
8 | Cc1nn(C)c(C(O)C2=CCCCC2)c1-c1c(F)cccc1F (centres unmarked) [Compound 10] |  | 0 | 92 |  | 
9 | Cc1nn(C)c(C(O)CC(C)C)c1-c1c(F)cccc1F (centres unmarked) [Compound 11] |  | 0 | 98 |  | 
10 | C=CCC(C)(C)C(O)c1c(-c2c(F)cccc2F)c(C)nn1C (centres unmarked) [Compound 12] |  | 0 | 83 |  | 
11 | CCCCC(CC)C(O)c1c(-c2c(F)cccc2F)c(C)nn1C (centres unmarked) [Compound 13] |  | 0 | 55 |  | 
12 | CCCC(O)c1c(-c2c(F)cccc2F)c(C)nn1C (centres unmarked) [Compound 14] |  | 0 | 62 |  | 
13 | CCC(C)C(O)c1c(-c2c(F)cccc2F)c(C)nn1C (centres unmarked) [Compound 15] |  | 9 | 100 |  | 
14 | CCC(C)C(O)c1c(-c2c(F)cccc2Cl)c(C)nn1C (stereo not drawn) [Compound 19, 4-(2-chloro-6-fluorophenyl)-1,3-dimethyl-α-(1-methylpropyl)-1H-pyrazole-5-methanol] |  |  |  | 89 | 0* %
15 | Cc1nn(C)c(C(O)CC(C)C)c1-c1c(F)cccc1Cl (centres unmarked) [Compound 20] |  | 0 | 100 |  | 
16 | CCCC(O)c1c(-c2c(F)cccc2Cl)c(C)nn1C (centres unmarked) [Compound 21] |  | 0 | 97 |  | 
